{"source": "patent US20070010459A1", "about": "“Application of asiatic acid and its derivatives to treat pulmonary fibrosis” (priority 2005, published 2007)", "key": {"[1]": {"system": "primary culture of mice fibroblast", "test": "bFGF-stimulated proliferation of primary fibroblast culture", "assay_type": "cell-based", "conditions": "bFGF 0.5 g/ml; tested at 25, 12.5, 6.25, 3.125 or 1.56 μg", "procedure": "Using bFGF (0.5 µg/ml), the proliferation of primary culture of mice fibroblast with the presence of asiaticoside or asiatic acid at 25, 12.5, 6.25, 3.125 or 1.56 μg respectively was assessed."}, "[2]": {"test": "PK study: plasma asiaticoside and asiatic acid after intragastric asiaticoside", "assay_type": "in vivo, SD rats", "conditions": "asiaticoside 100 mg/kg intragastric; 0.5-24 hours; LC/MS", "procedure": "SD rats were given asiaticoside through intragastric administration at 100 mg/kg. The blood samples were taken 0.5, 1, 2, 4, 6, 9, 12 and 24 hours after administration respectively. Plasma samples were prepared and analyzed for asiaticoside and asiatic acid concentration by LC/MS or GC/MS respectively. […] The plasma concentration of asiatic acid peaked after 4-6 hours after administration."}, "[3]": {"system": "rats with pulmonary fibrosis induced by bleomycin", "test": "Pharmacodynamics of asiaticoside in rats with pulmonary fibrosis induced by bleomycin", "assay_type": "in vivo", "procedure": "The rats with lung fibrosis were induced by bleomycin through trachea administration and then treated with asiaticoside. […] The study regimen lasted for 28 days. The lung weight coefficient and hydroyproline (HXP) content were measured on day 2 and 8 after the formation of animal model. CT scan, pathology and serum ECM content measurements were conducted on day 14, 21 and 28 days respectively."}, "[4]": {"system": "radiation pneumonia and subsequent pulmonary fibrosis induced by Cobalt-60 radiation", "test": "Pharmacodynamics of asiaticoside in radiation pneumonia induced by Cobalt-60 radiation", "assay_type": "in vivo, rats", "parameters": "Type IV (collagen content comparison, serum ECM) / Laminin (serum ECM) / Hyaluronic Acid (serum ECM): unit not given here", "procedure": "Radiation pneumonia and subsequent pulmonary fibrosis in rats was induced by Cobalt-60 radiation. The efficacies were assessed by the lung weight coefficient, HXP content, serum ECM measurement, CT scan and pathological examinations."}, "[5]": {"test": "Pharmacokinetics, tissue distribution and excretion of asiaticoside", "assay_type": "in vivo, rats", "conditions": "rats, asiaticoside gavage, highest dose (100 mg/kg)", "procedure": "Three doses of asiaticoside (10, 33, 100 mg/kg) were gavaged to rats (n=6) and canines (n=4). After dosing, blood was sampled up to 120 or 216 hours in rats and canines respectively. Tissue distribution and excretion studies in rats were carried out with the highest dose.\nThe respective asiaticoside and asiatic acid in the same bio-matrix were detected by LC/MS/MS and GC/MS. Because the secondary peak resembled a plasma concentration-time profile in both rat and canine rather than conventional compartment fitting, statistical moment analysis was used in calculating pharmacokinetic parameters. […] In addition to the targeted organ, both asiaticoside and asiatic acid were distributed in some other organs, which could be the sign to expand clinical indications."}, "Beagle dogs [6]": {"system": "Beagle dogs", "test": "Chronic toxicity study in Beagle dogs", "assay_type": "in vivo", "procedure": "Beagle dogs were given 18, 72 or 240 mg/kg asiaticoside respectively daily for 9 consecutive months along with a control group."}, "Beagle dogs [7]": {"system": "Beagle dogs", "test": "Acute toxicity study in Beagle dogs", "assay_type": "in vivo", "conditions": "single administration", "excerpt": "Therefore the highest dosage was given to the animal. […] Food uptake and activity were normal in the observation period."}, "SD rats [8]": {"system": "SD rats", "test": "Embryonic and fetus toxicity and teratogenicity test in SD rats", "assay_type": "in vivo", "procedure": "SD rats were given 120, 380 or 1200 mg/kg of asiaticoside respectively through intragastric administration for 10 consecutive days from day 6-15 of gestation. […] Nor there were any fetus anomalies or obform."}, "SD rats [9]": {"system": "SD rats", "test": "General reproductive toxicity study in rats", "assay_type": "in vivo", "procedure": "SD rats were intragastric administrated with 120, 380 or 1200 mg/kg of asiaticoside respectively. Male and female were given 4 weeks or two weeks of asiaticoside before combining the cages. The male ones were given 5 additional weeks of asiaticoside, while female ones were given the drug till the 15th day of gestation. […] Weight, contour, internal organs and skeleton of fetus were all normal."}, "[10]": {"conditions": "asiaticoside, range over 3 doses (4, 12, 36 mg/kg)"}}}
{"smiles": "C[C@H]1[C@H](C)CC[C@]2(C(=O)O[C@@H]3O[C@H](CO[C@@H]4O[C@H](CO)[C@@H](O[C@@H]5O[C@H](C)[C@H](O)[C@@H](O)[C@H]5O)[C@H](O)[C@H]4O)[C@@H](O)[C@H](O)[C@H]3O)CC[C@]3(C)C(=CC[C@@H]4[C@@]5(C)C[C@@H](O)[C@H](O)[C@@](C)(CO)[C@@H]5CC[C@]43C)[C@H]12", "note": "[Asiaticoside, asiaticoside]", "values": [{"measurement": "Inhibitory activity on fibroblast proliferation", "setting": "[1]", "value": "no apparent inhibitory activity"}, {"measurement": "Plasma concentration of asiaticoside", "setting": "[2]", "value": "only trace quantity"}, {"measurement": "HXP content", "setting": "[3]; asiaticoside 4 mg/kg, 28 days", "value": "19.63 ± 3.91", "unit": "mg/g"}, {"measurement": "Lung weight coefficient", "setting": "[3]; asiaticoside 4 mg/kg, 28 days", "value": 0.63, "unit": "%"}, {"measurement": "HXP content", "setting": "[3]; asiaticoside 12 mg/kg, 28 days", "value": "18.95 ± 7.00", "unit": "mg/g"}, {"measurement": "Lung weight coefficient", "setting": "[3]; asiaticoside 12 mg/kg, 28 days", "value": 0.66, "unit": "%"}, {"measurement": "HXP content", "setting": "[3]; asiaticoside 36 mg/kg, 28 days", "value": "18.56 ± 3.98", "unit": "mg/g"}, {"measurement": "Lung weight coefficient", "setting": "[3]; asiaticoside 36 mg/kg, 28 days", "value": 0.64, "unit": "%"}, {"measurement": "Pathology", "setting": "[3]; asiaticoside 4, 12, 36 mg/kg", "value": "light fibroplasias in alveoli pulmonis diaphragm, light lymphocyte infiltration and compensatory emphysema"}, {"measurement": "CT scan findings", "setting": "[3]; asiaticoside 4, 12, 36 mg/kg, not dose dependent", "value": "ground glass infiltration in the lung tissue was found, but was significantly less than in the model group"}, {"measurement": "Overall efficacy", "setting": "[3]; asiaticoside 4, 12 and 36 mg/kg, 28 days", "value": "efficacious in preventing and treating lung fibrosis induced by bleomycin to certain extent"}, {"measurement": "ET-1 (cytokine content)", "setting": "[3]; [10]", "value": "229.62-241.60"}, {"measurement": "Hyaluronic Acid (serum ECM)", "setting": "[3]; [10]", "value": "112.66-312.28"}, {"measurement": "Laminin (serum ECM)", "setting": "[3]; [10]", "value": "43.83-55.75"}, {"measurement": "PIIIP (collagen content comparison, serum ECM)", "setting": "[3]; [10]", "value": "13.87-24.54"}, {"measurement": "TNF-α (cytokine content)", "setting": "[3]; [10]", "value": "5.20-6.49"}, {"measurement": "TNF-[…] (cytokine content)", "setting": "[3]; [10]", "value": "0.067-0.077"}, {"measurement": "Type IV (collagen content comparison, serum ECM)", "setting": "[3]; [10]", "value": "4.33-10.45"}, {"measurement": "HXP content", "setting": "[4]; asiaticoside 4 mg/kg", "value": "40.88 ± 9.77", "unit": "mg/g"}, {"measurement": "Hyaluronic Acid (serum ECM)", "setting": "[4]; asiaticoside 4 mg/kg", "value": "259.01 ± 64.39"}, {"measurement": "Laminin (serum ECM)", "setting": "[4]; asiaticoside 4 mg/kg", "value": "39.21 ± 5.69"}, {"measurement": "Lung weight coefficient", "setting": "[4]; asiaticoside 4 mg/kg", "value": 0.42, "unit": "%"}, {"measurement": "PIIIP (collagen content comparison, serum ECM)", "setting": "[4]; asiaticoside 4 mg/kg", "value": "21.00 ± 9.50"}, {"measurement": "Type IV (collagen content comparison, serum ECM)", "setting": "[4]; asiaticoside 4 mg/kg", "value": "14.74 ± 4.03"}, {"measurement": "HXP content", "setting": "[4]; asiaticoside 12 mg/kg", "value": "32.78 ± 4.37", "unit": "mg/g"}, {"measurement": "Hyaluronic Acid (serum ECM)", "setting": "[4]; asiaticoside 12 mg/kg", "value": "246.91 ± 33.2"}, {"measurement": "Laminin (serum ECM)", "setting": "[4]; asiaticoside 12 mg/kg", "value": "41.11 ± 9.15"}, {"measurement": "Lung weight coefficient", "setting": "[4]; asiaticoside 12 mg/kg", "value": 0.20, "unit": "%"}, {"measurement": "PIIIP (collagen content comparison, serum ECM)", "setting": "[4]; asiaticoside 12 mg/kg", "value": "18.84 ± 10.70"}, {"measurement": "Type IV (collagen content comparison, serum ECM)", "setting": "[4]; asiaticoside 12 mg/kg", "value": "11.97 ± 4.09"}, {"measurement": "HXP content", "setting": "[4]; asiaticoside 36 mg/kg", "value": "31.38 ± 4.75", "unit": "mg/g"}, {"measurement": "Hyaluronic Acid (serum ECM)", "setting": "[4]; asiaticoside 36 mg/kg", "value": "220.64 ± 67.55"}, {"measurement": "Laminin (serum ECM)", "setting": "[4]; asiaticoside 36 mg/kg", "value": "48.29 ± 10.67"}, {"measurement": "Lung weight coefficient", "setting": "[4]; asiaticoside 36 mg/kg", "value": 0.34, "unit": "%"}, {"measurement": "PIIIP (collagen content comparison, serum ECM)", "setting": "[4]; asiaticoside 36 mg/kg", "value": "14.27 ± 10.40"}, {"measurement": "Type IV (collagen content comparison, serum ECM)", "setting": "[4]; asiaticoside 36 mg/kg", "value": "10.04 ± 5.69"}, {"measurement": "CT scan findings", "setting": "[4]; high dose asiaticoside group", "value": "a few fibrotic streaks"}, {"measurement": "CT scan findings", "setting": "[4]; low dose asiaticoside group", "value": "mild ground glass infiltration and atelectasis in the right lower lung"}, {"measurement": "CT scan findings", "setting": "[4]; median dose asiaticoside group", "value": "mild ground glass infiltration and fibrotic streaks in the right lung"}, {"measurement": "Overall efficacy", "setting": "[4]; pulmonary fibrosis induced by radiation", "value": "efficacious in treating pulmonary fibrosis induced by radiation to certain extent"}, {"measurement": "Main excretion route", "setting": "[5]", "value": "feces, bile and urine"}, {"measurement": "Tissue accumulation", "setting": "[5]", "value": "no apparent tissue accumulation"}, {"measurement": "Nontoxic dose as multiple of proposed clinical dosage in human", "setting": "Beagle dogs [6]; 240 mg/kg/d", "value": 40, "unit": "×"}, {"measurement": "Nontoxic dose", "setting": "Beagle dogs [6]; 9-month chronic toxicity study, 18, 72 or 240 mg/kg daily", "value": 240, "unit": "mg/kg/day"}, {"measurement": "Toxicity observations (behavior, activity, weight, mental state, excrement and urine)", "setting": "Beagle dogs [6]; 18, 72 or 240 mg/kg daily for 9 consecutive months", "value": "no apparent toxicity"}, {"measurement": "Highest dose given, no toxicity observed (no acute LD50 could be measured)", "setting": "Beagle dogs [7]", "value": 10000, "unit": "mg/kg"}, {"measurement": "Dose without embryonic and fetus toxicity as multiple of effective dose (6 mg/kg) in mice", "setting": "SD rats [8]; 1.2 g/kg", "value": 200, "unit": "×"}, {"measurement": "Incidence rate of enlargement of fetus pelvis renalis", "setting": "SD rats [8]; 1.2 g/kg", "value": "increased, yet this was not statistically significant"}, {"measurement": "Embryonic and fetus toxicity", "setting": "SD rats [8]; 120, 380 or 1200 mg/kg intragastric, day 6-15 of gestation", "value": "no embryonic and fetus toxicity"}, {"measurement": "Dose with no embryonic and fetus toxicity", "setting": "SD rats [8]; intragastric, day 6-15 of gestation", "value": 1200, "unit": "mg/kg"}, {"measurement": "Clinical observation in male and female animals", "setting": "SD rats [9]; 1.2 g/kg", "value": "bleeding around apertura narium"}, {"measurement": "Reproductive toxicity", "setting": "SD rats [9]; 120, 380 or 1200 mg/kg intragastric", "value": "no reproductive toxicity"}]}
